Laboratory results published in PubChem BioAssay (NCI).
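Briefly, cells in 96-well plates were exposed to five compound concentrations for 48 h, and endpoints were estimated by linear interpolation. At the TGI there is no net growth.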

How the values were obtained:
Test in all cases: NCI-60 cell line screen, 48 h
[1] = tested on: MALME-3M melanoma
[2] = tested on: HOP-18 NSCLC
[3] = tested on: HCC-2998 colon
[4] = tested on: HT29 colon
[5] = tested on: OVCAR-8 ovarian
[6] = tested on: HL-60(TB) leukemia
[7] = tested on: CCRF-CEM leukemia
[8] = tested on: LXFL 529 NSCLC
[9] = tested on: RXF 393 renal
[10] = tested on: K-562 leukemia
[11] = tested on: HCT-15 colon
[12] = tested on: A549 NSCLC
[13] = tested on: OVCAR-5 ovarian
[14] = tested on: EKVX NSCLC
[15] = tested on: KM12 colon
[16] = tested on: SN12C renal
[17] = tested on: DMS 273 small cell lung
[18] = tested on: SK-MEL-5 melanoma
[19] = tested on: UO-31 renal
[20] = tested on: SR leukemia
[21] = tested on: SF-268 CNS
[22] = tested on: SF-539 CNS
[23] = tested on: HOP-62 NSCLC
[24] = tested on: HOP-92 NSCLC
[25] = tested on: DMS 114 small cell lung
[26] = tested on: M19-MEL melanoma
[27] = tested on: SK-MEL-2 melanoma
[28] = tested on: U251 CNS
[29] = tested on: SNB-19 CNS
[30] = tested on: UACC-257 melanoma
[31] = tested on: SW-620 colon
[32] = tested on: SNB-78 CNS
[33] = tested on: NCI-H460 lung
[34] = tested on: OVCAR-3 ovarian
[35] = tested on: NCI-H522 lung
[36] = tested on: KM20L2 colon
[37] = tested on: CAKI-1 renal
[38] = tested on: TK-10 renal
[39] = tested on: RPMI-8226 leukemia
[40] = tested on: HCT-116 colon
[41] = tested on: M14 melanoma
[42] = tested on: NCI-H226 lung
[43] = tested on: NCI-H23 lung
[44] = tested on: DLD-1 colon
[45] = tested on: COLO 205 colon
[46] = tested on: IGROV1 ovarian
[47] = tested on: UACC-62 melanoma
[48] = tested on: XF 498 CNS
[49] = tested on: SNB-75 CNS
[50] = tested on: A498 renal
[51] = tested on: SK-OV-3 ovarian
[52] = tested on: 786-0 renal
[53] = tested on: OVCAR-4 ovarian
[54] = tested on: SF-295 CNS
[55] = tested on: RXF-631 renal
[56] = tested on: ACHN renal
[57] = tested on: LOX IMVI melanoma
[58] = tested on: SK-MEL-28 melanoma
[59] = tested on: MOLT-4 leukemia

SMILES: O=C1CCC(=O)c2cc(Br)ccc2N1
- TGI [1]: > 100 µM
- TGI [2]: > 100 µM
- TGI [3]: > 100 µM
- TGI [4]: > 100 µM
- TGI [5]: > 100 µM
- TGI [6]: > 100 µM
- TGI [7]: > 100 µM
- TGI [8]: > 100 µM
- TGI [9]: > 100 µM
- TGI [10]: > 100 µM
- TGI [11]: > 100 µM
- TGI [12]: > 100 µM
- TGI [13]: > 100 µM
- TGI [14]: > 100 µM
- TGI [15]: > 100 µM
- TGI [16]: > 100 µM
- TGI [17]: > 100 µM
- TGI [18]: > 100 µM
- TGI [19]: > 100 µM
- TGI [20]: 63.1 µM
- TGI [21]: > 100 µM
- TGI [22]: > 100 µM
- TGI [23]: > 100 µM
- TGI [24]: > 100 µM
- TGI [25]: > 100 µM
- TGI [26]: > 100 µM
- TGI [27]: > 100 µM
- TGI [28]: > 100 µM
- TGI [29]: > 100 µM
- TGI [30]: > 100 µM
- TGI [31]: > 100 µM
- TGI [32]: > 100 µM
- TGI [33]: > 100 µM
- TGI [34]: > 100 µM
- TGI [35]: > 100 µM
- TGI [36]: > 100 µM
- TGI [37]: > 100 µM
- TGI [38]: > 100 µM
- TGI [39]: > 100 µM
- TGI [40]: > 55 µM
- TGI [41]: > 100 µM
- TGI [42]: > 100 µM
- TGI [43]: > 100 µM
- TGI [44]: > 100 µM
- TGI [45]: > 100 µM
- TGI [46]: > 100 µM
- TGI [47]: > 100 µM
- TGI [48]: > 100 µM
- TGI [49]: > 100 µM
- TGI [50]: > 100 µM
- TGI [51]: > 100 µM
- TGI [52]: > 100 µM
- TGI [53]: > 100 µM
- TGI [54]: > 100 µM
- TGI [55]: > 100 µM
- TGI [56]: > 100 µM
- TGI [57]: > 100 µM
- TGI [58]: > 100 µM
- TGI [59]: > 100 µM
